According to PubChem BioAssay AID1963967 (Molecular Pharmacology Branch, DTP, NCI, 2024):

Tested on: 855422-203-R-J1-PDC spheroids with HUVEC/MSC, viability
Experiment: Anticancer human tumor 855422-203-R-J1-PDC patient-derived bladder carcinoma cell line growth inhibition [PI3K]
Settings: for viability, T/C: stronger effect = lower value
How it was run: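 Spheroid viability read-out. Co-cultures contained the tumor line plus HUVEC and human MSCs. Each agent was paired with a PI3K inhibitor (inavolisib, alpelisib, duvelisib, copanlisib) across half-log dilutions starting at clinical Cmax, or at 10 microM when Cmax was unknown.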

[1] = curve of first compound, second compound 0.00316 µM
[2] = curve of first compound, second compound 0.01 µM
[3] = curve of first compound, second compound 0.0316 µM
[4] = curve of first compound, second compound 0.1 µM
[5] = curve of first compound, second compound 0.316 µM
[6] = curve of first compound, second compound 1 µM
[7] = second compound 0.0316 µM, first compound 0.0316 µM
[8] = second compound 0.0316 µM, first compound 0.1 µM
[9] = second compound 0.1 µM, first compound 0.0316 µM
[10] = second compound 0.1 µM, first compound 0.1 µM
[11] = second compound 0.316 µM, first compound 0.0316 µM
[12] = second compound 0.316 µM, first compound 0.1 µM
[13] = second compound 1 µM, first compound 0.0316 µM
[14] = second compound 1 µM, first compound 0.1 µM
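Note: agents incubated with spheroids for one week before read-out.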
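Throughout, for viability, T/C: 100% = DMSO vehicle-treated control wells.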

Q: Which results are given for `Cn1cnc2c(F)c(Nc3ccc(Br)cc3Cl)c(C(=O)NOCCO)cc21` + CC(Nc1ccc2c(c1)OCCn1cc(N3C(=O)OCC3C(F)F)nc1-2)C(N)=O?
A: IC50 [1]: 2280 nM; IC50 [2]: 2150 nM; IC50 [3]: 1870 nM; IC50 [4]: 769 nM; IC50 [5]: < 9.49 nM; IC50 [6]: < 9.49 nM; viability, T/C (second compound 0.00316 µM, first compound 0.00949 µM): 91.7%; viability, T/C (second compound 0.00316 µM, first compound 0.03 µM): 83.8%; viability, T/C (second compound 0.00316 µM, first compound 0.0949 µM): 104%; viability, T/C (second compound 0.00316 µM, first compound 0.3 µM): 83.2%; viability, T/C (second compound 0.00316 µM, first compound 0.949 µM): 82.5%; viability, T/C (second compound 0.00316 µM, first compound 3 µM): 39.8%; viability, T/C (second compound 0.01 µM, first compound 0.00949 µM): 95.9%; viability, T/C (second compound 0.01 µM, first compound 0.03 µM): 89.1%; viability, T/C (second compound 0.01 µM, first compound 0.0949 µM): 97.7%; viability, T/C (second compound 0.01 µM, first compound 0.3 µM): 81.4%; viability, T/C (second compound 0.01 µM, first compound 0.949 µM): 80.9%; viability, T/C (second compound 0.01 µM, first compound 3 µM): 37.9%; viability, T/C (second compound 0.0316 µM, first compound 0.00949 µM): 81%; viability, T/C (second compound 0.0316 µM, first compound 0.03 µM): 83.4%; viability, T/C (second compound 0.0316 µM, first compound 0.0949 µM): 91.5%; viability, T/C (second compound 0.0316 µM, first compound 0.3 µM): 92.3%; viability, T/C (second compound 0.0316 µM, first compound 0.949 µM): 75%; viability, T/C (second compound 0.0316 µM, first compound 3 µM): 32.6%; viability, T/C (second compound 0.1 µM, first compound 0.00949 µM): 64.9%; viability, T/C (second compound 0.1 µM, first compound 0.03 µM): 67.1%; viability, T/C (second compound 0.1 µM, first compound 0.0949 µM): 67.3%; viability, T/C (second compound 0.1 µM, first compound 0.3 µM): 71.3%; viability, T/C (second compound 0.1 µM, first compound 0.949 µM): 46%; viability, T/C (second compound 0.1 µM, first compound 3 µM): 22.2%; viability, T/C (second compound 0.316 µM, first compound 0.00949 µM): 47.6%; viability, T/C (second compound 0.316 µM, first compound 0.03 µM): 45.7%; viability, T/C (second compound 0.316 µM, first compound 0.0949 µM): 47.3%; viability, T/C (second compound 0.316 µM, first compound 0.3 µM): 38.3%; viability, T/C (second compound 0.316 µM, first compound 0.949 µM): 28.6%; viability, T/C (second compound 0.316 µM, first compound 3 µM): 9.16%; viability, T/C (second compound 1 µM, first compound 0.00949 µM): 30.4%; viability, T/C (second compound 1 µM, first compound 0.03 µM): 28.1%; viability, T/C (second compound 1 µM, first compound 0.0949 µM): 25.3%; viability, T/C (second compound 1 µM, first compound 0.3 µM): 21.3%; viability, T/C (second compound 1 µM, first compound 0.949 µM): 16.1%; viability, T/C (second compound 1 µM, first compound 3 µM): 4.67%

Q: `CC(C)n1nc(-c2ccc3oc(N)nc3c2)c2c(N)ncnc21` + CC(Nc1ncnc2nc[nH]c12)c1cc2cccc(Cl)c2c(=O)n1-c1ccccc1 was tested. Which IC50 [3] did it give?
A: 50.8 nM

Q: What about the IC50 [4] of the same compound?
A: 50.2 nM

Q: What about the IC50 [5] of the same compound?
A: 46.5 nM

Q: And the IC50 [6]?
A: 38.7 nM

Q: What about the IC50 (curve of first compound, second compound 3.16 µM) of the same compound?
A: 33.4 nM

Q: What about the IC50 (curve of first compound, second compound 10 µM) of the same compound?
A: 17.3 nM

Q: What about the viability, T/C (second compound 0.0316 µM, first compound 0.000316 µM) of the same compound?
A: 111%

Q: And the viability, T/C (second compound 0.0316 µM, first compound 0.001 µM)?
A: 97.1%

Q: What about the viability, T/C (second compound 0.0316 µM, first compound 0.00316 µM) of the same compound?
A: 121%

Q: What about the viability, T/C (second compound 0.0316 µM, first compound 0.01 µM) of the same compound?
A: 98.6%

Q: And the viability, T/C [7]?
A: 74.3%

Q: And the viability, T/C [8]?
A: 15.9%

Q: And the viability, T/C (second compound 0.1 µM, first compound 0.000316 µM)?
A: 110%

Q: What about the viability, T/C (second compound 0.1 µM, first compound 0.001 µM) of the same compound?
A: 108%

Q: And the viability, T/C (second compound 0.1 µM, first compound 0.00316 µM)?
A: 107%

Q: What about the viability, T/C (second compound 0.1 µM, first compound 0.01 µM) of the same compound?
A: 98.1%

Q: And the viability, T/C [9]?
A: 74%

Q: What about the viability, T/C [10] of the same compound?
A: 14.4%

Q: What about the viability, T/C (second compound 0.316 µM, first compound 0.000316 µM) of the same compound?
A: 100%

Q: And the viability, T/C (second compound 0.316 µM, first compound 0.001 µM)?
A: 106%

Q: What about the viability, T/C (second compound 0.316 µM, first compound 0.00316 µM) of the same compound?
A: 102%

Q: What about the viability, T/C (second compound 0.316 µM, first compound 0.01 µM) of the same compound?
A: 99.3%

Q: And the viability, T/C [11]?
A: 69.1%

Q: And the viability, T/C [12]?
A: 12.1%

Q: What about the viability, T/C (second compound 1 µM, first compound 0.000316 µM) of the same compound?
A: 110%

Q: And the viability, T/C (second compound 1 µM, first compound 0.001 µM)?
A: 91.2%

Q: And the viability, T/C (second compound 1 µM, first compound 0.00316 µM)?
A: 100%

Q: What about the viability, T/C (second compound 1 µM, first compound 0.01 µM) of the same compound?
A: 96.9%

Q: What about the viability, T/C [13] of the same compound?
A: 57.6%

Q: What about the viability, T/C [14] of the same compound?
A: 14.1%

Q: And the viability, T/C (second compound 3.16 µM, first compound 0.000316 µM)?
A: 95%

Q: What about the viability, T/C (second compound 3.16 µM, first compound 0.001 µM) of the same compound?
A: 91%

Q: What about the viability, T/C (second compound 3.16 µM, first compound 0.00316 µM) of the same compound?
A: 93.9%

Q: What about the viability, T/C (second compound 3.16 µM, first compound 0.01 µM) of the same compound?
A: 78.7%

Q: What about the viability, T/C (second compound 3.16 µM, first compound 0.0316 µM) of the same compound?
A: 52.2%

Q: What about the viability, T/C (second compound 3.16 µM, first compound 0.1 µM) of the same compound?
A: 12.9%

Q: And the viability, T/C (second compound 10 µM, first compound 0.000316 µM)?
A: 81.5%

Q: And the viability, T/C (second compound 10 µM, first compound 0.001 µM)?
A: 81%

Q: What about the viability, T/C (second compound 10 µM, first compound 0.00316 µM) of the same compound?
A: 80.3%

Q: What about the viability, T/C (second compound 10 µM, first compound 0.01 µM) of the same compound?
A: 59%

Q: And the viability, T/C (second compound 10 µM, first compound 0.0316 µM)?
A: 38.2%

Q: And the viability, T/C (second compound 10 µM, first compound 0.1 µM)?
A: 13.6%

Q: For `CC1(C)CCC(CN2CCN(c3ccc(C(=O)NS(=O)(=O)c4ccc(NCC5CCOCC5)c([N+](=O)[O-])c4)c(Oc4cnc5[nH]ccc5c4)c3)CC2)=C(c2ccc(Cl)cc2)C1` + COc1c(OCCCN2CCOCC2)ccc2c3n(c(=NC(=O)c4cnc(N)nc4)nc12)CCN3, which IC50 [1] is on record?
A: 5280 nM

Q: What about the IC50 [2] of the same compound?
A: 5040 nM

Q: And the IC50 [3]?
A: 4600 nM

Q: What about the IC50 [4] of the same compound?
A: < 31.6 nM

Q: And the IC50 [5]?
A: < 31.6 nM

Q: What about the IC50 [6] of the same compound?
A: < 31.6 nM

Q: What about the viability, T/C (second compound 0.00316 µM, first compound 0.0316 µM) of the same compound?
A: 98.5%

Q: And the viability, T/C (second compound 0.00316 µM, first compound 0.1 µM)?
A: 80.8%

Q: And the viability, T/C (second compound 0.00316 µM, first compound 0.316 µM)?
A: 99.5%

Q: And the viability, T/C (second compound 0.00316 µM, first compound 1 µM)?
A: 87.2%

Q: And the viability, T/C (second compound 0.00316 µM, first compound 3.16 µM)?
A: 88.1%

Q: What about the viability, T/C (second compound 0.00316 µM, first compound 10 µM) of the same compound?
A: 2.53%

Q: And the viability, T/C (second compound 0.01 µM, first compound 0.0316 µM)?
A: 91%

Q: What about the viability, T/C (second compound 0.01 µM, first compound 0.1 µM) of the same compound?
A: 77.5%

Q: What about the viability, T/C (second compound 0.01 µM, first compound 0.316 µM) of the same compound?
A: 78.3%

Q: What about the viability, T/C (second compound 0.01 µM, first compound 1 µM) of the same compound?
A: 76.4%

Q: What about the viability, T/C (second compound 0.01 µM, first compound 3.16 µM) of the same compound?
A: 90.8%

Q: And the viability, T/C (second compound 0.01 µM, first compound 10 µM)?
A: 1.94%

Q: What about the viability, T/C [7] of the same compound?
A: 62.5%

Q: What about the viability, T/C [8] of the same compound?
A: 65.3%

Q: And the viability, T/C (second compound 0.0316 µM, first compound 0.316 µM)?
A: 73.7%

Q: And the viability, T/C (second compound 0.0316 µM, first compound 1 µM)?
A: 78.2%

Q: What about the viability, T/C (second compound 0.0316 µM, first compound 3.16 µM) of the same compound?
A: 87.3%

Q: What about the viability, T/C (second compound 0.0316 µM, first compound 10 µM) of the same compound?
A: 1.43%

Q: And the viability, T/C [9]?
A: 29.7%

Q: And the viability, T/C [10]?
A: 30.3%

Q: What about the viability, T/C (second compound 0.1 µM, first compound 0.316 µM) of the same compound?
A: 30.6%

Q: And the viability, T/C (second compound 0.1 µM, first compound 1 µM)?
A: 33.5%

Q: And the viability, T/C (second compound 0.1 µM, first compound 3.16 µM)?
A: 31.8%

Q: And the viability, T/C (second compound 0.1 µM, first compound 10 µM)?
A: 1.14%

Q: And the viability, T/C [11]?
A: 12.1%

Q: What about the viability, T/C [12] of the same compound?
A: 9.95%

Q: And the viability, T/C (second compound 0.316 µM, first compound 0.316 µM)?
A: 12.7%

Q: And the viability, T/C (second compound 0.316 µM, first compound 1 µM)?
A: 9.33%

Q: What about the viability, T/C (second compound 0.316 µM, first compound 3.16 µM) of the same compound?
A: 9.24%

Q: What about the viability, T/C (second compound 0.316 µM, first compound 10 µM) of the same compound?
A: 0.68%

Q: What about the viability, T/C [13] of the same compound?
A: 3.97%

Q: And the viability, T/C [14]?
A: 5.15%

Q: What about the viability, T/C (second compound 1 µM, first compound 0.316 µM) of the same compound?
A: 4.27%

Q: And the viability, T/C (second compound 1 µM, first compound 1 µM)?
A: 5.32%

Q: And the viability, T/C (second compound 1 µM, first compound 3.16 µM)?
A: 4.63%

Q: What about the viability, T/C (second compound 1 µM, first compound 10 µM) of the same compound?
A: 1.04%

Q: With `CC(C)n1nc(-c2ccc3oc(N)nc3c2)c2c(N)ncnc21` as the compound, how does the viability, T/C (compound 0.000316 µM) read?
A: 113% [middle of 4 runs]

Q: What about the viability, T/C (compound 0.001 µM) of the same compound?
A: 93.4% [middle of 4 runs]

Q: What about the viability, T/C (compound 0.00316 µM) of the same compound?
A: 113% [middle of 4 runs]

Q: And the viability, T/C (compound 0.01 µM)?
A: 91.1% [middle of 4 runs]

Q: And the viability, T/C (compound 0.0316 µM)?
A: 80.6% [middle of 4 runs]

Q: And the viability, T/C (compound 0.1 µM)?
A: 17.8% [middle of 4 runs]

Q: What about the IC50 (curve of compound) of the same compound?
A: 55.3 nM [middle of 4 runs]
